Entries after “also recorded” stand apart in the source; their conditions may differ.
Experiments:
[1] = tested on: striatum (a brain structure); assay: In vivo injection into the striatum, gliosis (nissl stain); details: rats, 1 μl into the striatum
Protocol: Three hundred g rats were anesthesized with equithesin (0.3 ml/100 g body weight). The skull was surgically exposed and small burr holes were stereotaxically drilled at AP=+1.5, ML=+/−3.0 relative to bregma. An injection cannula was placed at a depth of −4.5 in the striatum (a brain structure). Experimental rats received 1 μl of EAK16 or RAD16 injected into the striatum. Control rats received similar injections of ibotenic acid, a well characterized toxin, as a positive contorl for gliosis, the experimental rats also received 35 μl injection of EAK16 or RAD16 into the thigh muscle (n=2 for each group). The rate were allowed to recover, then sacrificed for tissue harvest.

3T3 fibroblast cells = assay: Cell attachment to biopolymer sheets, with serum or serum-free + cyclohexamide (Table 5); type: cell-based, mouse; parameters: key: ++++: strong attachment; +++: moderate attachment; ++: weak attachment; +/−: little or no attachment
Protocol: 3T3 fibroblast cells were introduced to membranes of RAD16 and EAK16 in normal serum-containing medium or in serum-free medium containing 30 μg/ml cyclohexamide (cells used for this condition were pretreated in this medium for 2 hours before plating). Cells were allowed to attach to the membranes for 30 minutes, 1 and 8 hours at 37° C. The attached cells were shaken for 10 minutes on a rotary rocker at 60 r.p.m., then scored under phase contrast microscopy. The decrease in cells attached to the membrane in the serum-free condition reflects cell loss due to serum deprivation.

PC12NGF = assay: Cell attachment to biopolymer sheets, normal or Ca++ and Mg++ free medium (Table 6); type: cell-based, rat; parameters: key: ++++: strong attachment; +++: moderate attachment; ++: weak attachment; +/−: little or no attachment
Protocol: (§1) Cells were pretreated in serum-free medium containing 30 μg/ml cyclohexamide for 2 hours before introduction to the peptide membranes. The cells used for the calcium and magnesium-free condition were pre-equilibrated in Ca^++ and Mg^++ free medium containing 5 mM EDTA for 15 minutes before introduction to the peptide membranes. Cells were allowed to attach to the peptide membranes for 30 minutes, 1 and 8 hours at 37° C. The attached cells were shaken for […] on a rotary rocker at 60 r.p.m., then scored under phase contrast microscopy.

PC12 = assay: as above; type: cell-based, rat; parameters: key: ++++: strong attachment; +++: moderate attachment; ++: weak attachment; +/−: little or no attachment
Protocol: as §1

3T3 = assay: as above; type: cell-based, mouse; parameters: key: ++++: strong attachment; +++: moderate attachment; ++: weak attachment; +/−: little or no attachment; details: 3T3, 30 min, Normal Ca^++ & Mg^++ serum-free + Cyclohex
Protocol: as §1

[2] = type: physicochemical
Protocol: Once formed, the macroscopic membranes are stable in a variety of aqueous solutions, including water, phosphate-buffered saline (PBS), tissue culture medium, serum, and also in ethanol, and can be transferred to and stored in any of these liquids. […] The membranes can be transferred from one solution to another using a solid support such as a spatula. They can be broken by cutting, tearing or shearing.
The stability of the membranes was also tested under a range of temperature, pH and chemical conditions. For these experiments, membranes were formed by adding 20 μl of a 0.5 mM stock solution of EAK16 to 0.5 ml of PBS, and transferred into water or other solutions at test conditions.
The membranes could be frozen and thawed, although care was required in handling the frozen membranes which were brittle. In boiling water, the membranes tended to be sheared by the mechanical agitation. […] (FIGS. 9A and 9B). […] Such strong thermal stability of the defined β-sheet structure of EAK16 is unusual for a small peptide. For example, these findings contrast with the α-helix-forming sixteen residue (Ala, Glu, Lys)-containing peptides studied previously (Marqusee and Baldwin, 1987).
The EAK16 membranes were also tested in water at pH 1.5, 3, 7 and 11 at room temperature for at least a week and at 95° C. for about 4 hours. The membranes were unaffected at these pH. […] It is possible that the complementary interactions between the Glu and Lys side-chains are strong even when the carboxyl groups of the Glu residues have been protonated at pH 1.5 and 3, due to their ability to form hydrogen bonds even when protonated.
The EAK16 membranes were further tested for resistance to chemical denaturation under the following conditions: 1% and 10% sodium dodecyl sulfate (SDS); 1, 2, 3, 4, 5, 6 and 7 M guanidine-HCl; and 1, 2, 3, 4, 5, 6, 7 and 8 M urea. […] The membranes were also tested at 95° C. for 4 hours in 10% SDS; 7 M guanidine-HCl; and at 8 M urea.

[3] = Testing of peptides for macroscopic membrane formation (phase-contrast microscope, Congo Red staining); type: physicochemical
Text: The effect of length and sequence on membrane formation was examined using several peptides (Table 1 and Example 3). […] Very long peptides, e.g., of about 200 amino acids, may encounter problems due to insolubility and intramolecular interactions which destabilize membrane formation. […] The optimal lengths for membrane formation will probably vary with the amino acid composition.
The EAK12 and EAK16 tested for membrane formation were acetylated and aminylated at both N- and C-terminal ends. […] The peptides were initially dissolved in water (5 mg/ml) or in 23% acetonitrile (10 mg/ml). A volume of 5-10 microliters of the dissolved peptides were applied to the DMEM medium, PBS or water. The formation of the membrane was first observed under a phase-contrast microscope and then, by the naked eye after staining with Congo Red.

PC12 cells = assay: In vitro neurite outgrowth on peptide membranes; type: cell-based, rat; parameters: Neurite outgrowth, NGF treated, 14 days: key to the marks not given beside the values
Protocol: The suitability of these materials for supporting in vitro neurite outgrowth was tested by treating biomaterial-attached PC12 cells with nerve growth factor (NGF). This treatment induces PC12 cells to differentiate into sympathetic neurons which can send out long processes called neurites. There was a marked difference in the neurite promoting properties of the two materials tested (EAK16 and RAD16).
Nerve growth factor differentiated PC12 cells have been used extensively in studies of neurite outgrowth. PC12 cells upregulate the number of calcium-dependent and -independent cell adhesion receptors in response to nerve growth factor. Cell attachment and neurite outgrowth from nerve growth factor differentiated PC12 cells was examined on membranes of RAD16 and EAK16 in order to determine whether membranes containing RGD-like sequences would preferentially support these cell activities. Neurite outgrowth on peptide membranes is of interest for potential applications of nerve repair.
Untreated PC12 cells were introduced to peptide membranes of EAK16 and RAD16 suspended in 85% RMMP1, 10% heat inactivated horse serum, 5 fetal bovine serum. Half of the cells were treated with nerve growth factor (50 ng/ml, NGF) and were supplemented with NGF every 3-4 days for 14 days. […] The neurite outgrowth reached greater than 400 μm in length, approximately 15-20 times the cell body, following the contour of the matrices in a three dimensional network.

[4] = tested on: NGF differentiated PC12 cells, retonic acid-differentiated human neuroblastoma and mouse cerebellum granule cells; assay: Neurite outgrowth on biopolymers, several neuronal cell types; type: cell-based
Text: The invention further relates to the regeneration of nerves with filaments of the membranes of the present invention. Nerve regeneration can be promoted and directed by transplanting filaments of RAD16 along the correct path to their targets. This would be extremely useful for patients with severed peripheral nerves. Such a technology could be refined to help people with spinal cord injuries.

[5] = NGF-treated PC12 cells, 14 days

In the case of `N[C@H](C(=O)O)c1cc(=O)[nH]o1` [ibotenic acid, reference compound], the “gliosis / gliotic scarring after brain injection” value [1] is reported as “robust gliotic scarring around the injection site”.
With H-AAAADADARARADAD-OH [RAD16] the cell attachment (3T3 fibroblast cells; 3T3, 30 min, medium with serum, no cyclohexamide) was “++++”, the cell attachment (3T3 fibroblast cells; 3T3, 30 min, serum-free medium, + cyclohexamide) was “++++” and the cell attachment (3T3 fibroblast cells; 3T3, 60 min, medium with serum, no cyclohexamide) was “++++”. For the same compound, the cell attachment (3T3 fibroblast cells; 3T3, 60 min, serum-free medium, + cyclohexamide) was “++++”, the cell attachment (3T3 fibroblast cells; 3T3, 8 hrs, medium with serum, no cyclohexamide) was “++++” and the cell attachment (3T3 fibroblast cells; 3T3, 8 hrs, serum-free medium, + cyclohexamide) was “++”. The cell attachment (PC12NGF; 30 min, Ca^++ & Mg^++ free, EDTA serum-free + Cyclohex) was “++++”, the cell attachment (PC12NGF; 30 min, Normal Ca^++ & Mg^++ serum-free + Cyclohex) was “++++” and the cell attachment (PC12NGF; 60 min, Ca^++ & Mg^++ free, EDTA serum-free + Cyclohex) was “++++”. The cell attachment (PC12NGF; 60 min, Normal Ca^++ & Mg^++ serum-free + Cyclohex) was “++++”, the cell attachment (PC12; PC12, 30 min, Ca^++ & Mg^++ free, EDTA serum-free + Cyclohex) was “++++” and the cell attachment (PC12; PC12, 30 min, Normal Ca^++ & Mg^++ serum-free + Cyclohex) was “++++”. For the same compound, the cell attachment (PC12; PC12, 60 min, Ca^++ & Mg^++ free, EDTA serum-free + Cyclohex) was “++++”, the cell attachment (PC12; PC12, 60 min, Normal Ca^++ & Mg^++ serum-free + Cyclohex) was “++++” and the cell attachment (3T3) was “++++”. The “stability of membranes in water or PBS” value [2] was “stable in water or PBS for at least a week”, the “formation of macroscopic membranes” value ([3]; identical conditions, in words) was “found to form macroscopic membranes” and the “membranous structure in Water” value ([3]; water) was “−”. For the same compound, the “neurite outgrowth of NGF-treated PC12 cells, in words” value (PC12 cells; NGF-treated PC12 cells on membranes) was “robust neurite processes; also recorded: Robust neurite outgrowth”, the neurite outgrowth length (PC12 cells; [5]) was “greater than 400 μm” and the “neurite outgrowth length relative to the cell body” value (PC12 cells; [5]) was 15-20 times the cell body. The “Neurite outgrowth, untreated, 14 days” value (PC12 cells; PC12 cells without NGF, 14 days) was “− (no neurite outgrowth)”, the “Neurite outgrowth, NGF treated, 14 days” value (PC12 cells; PC12 cells, NGF 50 ng/ml, 14 days) was “++++” and the “neurite outgrowth on biopolymers” value [4] was “occurs on RAD16-based biopolymers”.

Reference: patent US6800481B1, “Stable macroscopic membranes formed by self-assembly of amphiphilic peptides and uses therefor” (priority 1992, dated 2004)
